Data published in patent US8354426B2, “Naphthyridine derivative monohydrate and method for producing the same” (Toyama Chemical Co., Ltd., priority 2007, dated 2013).
Counter-ions that a name gives are not always drawn.

What was measured:
[1] = Solubility in phosphate buffer solution; format: physicochemical; details: aqueous buffer, thermodynamic from solid; 0.2 mol/L phosphate buffer solution (pH 6.5), 25° C., shaken 48 hours
Hygroscopicity test = format: physicochemical; details: stored three weeks, room temperature, relative humidity 97%
Excerpt: The compound of the present invention and the comparative compound were stored for three weeks under the conditions of room temperature and the relative humidity of 97%. […] On the other hand, the comparative compound had deliquesced.

S. aureus F-3095 = assay: Susceptibility test (MIC, microtiter broth dilution); format: cell-based; details: Staphylococcus aureus, F3095
Protocol: (§1) The compound of the present invention was dissolved in dimethyl sulfoxide and measured for the antibacterial activity (MIC) by a microtiter broth dilution method recommended by Japanese Society of Chemotherapy.
(§2) Staphylococcus aureus (S. aureus Smith, FDA209P, F-3095), Enterococcus faecalis (E. faecalis D-2648) and Escherichia coli (E. coli NIHJ) were used as the bacteria.
(§3) The bacterial cells, grown overnight on a Mueller-Hinton agar: MHA plate at 35° C., were suspended in a sterilized physiological saline so as to be a 0.5 McFarland equivalent standard. The cell suspension was diluted ten-fold to prepare an inoculum. Approximately 0.005 mL of the inoculum was inoculated into a cation-adjusted Mueller-Hinton broth (CAMHB), 100 μL/well containing the test substance and allowed to grow overnight at 35° C. The lowest concentration of the test substance at which no bacterial growth was observed by the naked eye was determined as MIC.

E. faecalis D-2648 = assay: as above; format: cell-based; details: Enterococcus faecalis, D2648
Protocol: as §1, §2, §3

S. aureus FDA209P = assay: as above; format: cell-based; details: Staphylococcus aureus, CAMHB, overnight at 35° C.
Protocol: as §1, §2, §3

S. aureus Smith = assay: as above; format: cell-based; details: Staphylococcus aureus, CAMHB, overnight at 35° C.
Protocol: as §1, §2, §3

E. coli NIHJ = assay: as above; format: cell-based; details: Escherichia coli, CAMHB, overnight at 35° C.
Protocol: as §1, §2, §3

Structure (SMILES): O=c1ccc2ncc(F)cc2n1CCN1CCC(NCc2cc3c(cn2)OCCO3)CC1 [Example 16, 1-(2-(4-((2,3-dihydro(1,4)dioxino(2,3-c)pyridin-7-ylmethyl)amino)piperidin-1-yl)ethyl)-7-fluoro-1,5-naphthyridin-2(1H)-one monohydrate]
- solubility at 48 h [1]: 21.2 mg/mL
- Appearance after storage (hygroscopicity / deliquescence) (Hygroscopicity test; monohydrate): powder with no apparent change
- MIC (S. aureus F-3095): 0.0313 µg/mL
- MIC (E. faecalis D-2648): 0.25 µg/mL
- MIC (S. aureus FDA209P): 0.0313 µg/mL
- MIC (S. aureus Smith): 0.0625 µg/mL
- MIC (E. coli NIHJ): 0.125 µg/mL

Structure (SMILES): O=c1ccc2ncc(F)cc2n1CCN1CCC(NCc2cc3c(cn2)OCCO3)CC1 [Comparative Example 1, 1-(2-(4-((2,3-dihydro(1,4)dioxino(2,3-c)pyridin-7-ylmethyl)amino)piperidin-1-yl)ethyl)-7-fluoro-1,5-naphthyridin-2(1H)-one trihydrochloride, reference compound]
- Appearance after storage (hygroscopicity / deliquescence) (Hygroscopicity test; trihydrochloride): deliquesced
